Reference: patent US20260001875A1, “AMINOPYRIMIDINYL DERIVATIVES FOR THE TREATMENT OF PARKINSON'S DISEASE” (UNIVERSITY OF DUNDEE, priority 2022, published 2026)
Like-named read-outs stand apart in the source and are kept apart here.

How the values were obtained:
[1] = tested on: Rab10 pThr73; assay: Rab10 Thr73 dephosphorylation (immunoblot) in WT MEFs; assay type: cell-based, mouse; conditions: for inhibition at 0.033 µM / inhibition at 1 µM: read-out: pRab10 inhibited in WT MEFs; for EC50: dose response, read-out: WT MEFs pRab10-dephosphrylation EC50
Procedure, shortened: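 Wild-type mouse embryonic fibroblasts in 6-well plates were treated with LRRK2 PROTACs, with two biological replicates per condition. Cells were washed in PBS and lysed on ice in buffer containing phosphatase and protease inhibitors plus 1% Triton X-100, then clarified at 15,000 g. Rab10 Thr73 phosphorylation was measured by quantitative immunoblotting of 15 to 20 μg protein on 4-12% Bis-Tris gels.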

[2] = tested on: LRRK2 pSer935; assay: LRRK2 Ser935 dephosphorylation (immunoblot) in WT MEFs; assay type: cell-based, mouse; conditions: for EC50: Mus musculus, dose response, read-out: WT MEFs pSer935 LRRK2-dephosphrylation EC50; for T1/2 WT-pSer935-LRRK2: WT MEFs
Description: Western blot degradation assays for the LRRK2 protacs were performed with WT and PD-associated LRRK2 [G2019S] mouse embryonic fibroblasts (MEFs). The second-generation PROTACs were tested in parallel with the first generation PROTACs SD75, SD82, and SD100. The compounds were tested at 33 nM or […] concentrations for 4 hours or 24 hours, running two biological replicates per condition and achieving quantifications representative of both replicates. Analysis by quantitative immunoblotting was performed with readouts of the total LRRK2 (antibody recognizes epitope in C-terminus of protein), Rab10 pThr73 (physiological substrate) and LRRK2 pSer935 (biomarker phosphorylation site).
Primary MEFs were generated as described in a previous study (Wiggin et al., Mol. Cell Biol. 2002 April; 22(8):2871-81.). Briefly, the uterine horn was collected from adult female mice at day E12.5 and transferred to a 10 cm tissue culture dish containing cold PBS. Two forceps were used to tear the yolk sacs to isolate each embryo. Forceps were cleaned thoroughly with 70% ethanol between each embryo isolation. The embryos were culled, and a tissue piece was collected in a PCR tube for genotyping. The red tissue of the embryo, which grows to become the heart and liver, was removed. The remainder of the embryo was minced with a scalpel blade and incubated with 7.5 ml trypsin-EDTA solution for 10 minutes in a 37° C. tissue culture CO2 incubator. The dish was removed from the incubator and checked under a light microscope for single cells. 7.5 ml complete media was added to the trypsinised cells, and the cell suspension was transferred to a 15 ml Falcon tube, centrifuged at 1200 rpm for 5 minutes at room temperature. The trypsin was aspirated, the cell pellet was resuspended in 5 ml fresh complete media, and the cell suspension was plated in a 60 mm tissue culture dish and incubated in a 37° C., 5% CO2 tissue culture incubator. The MEFs at this stage were considered as passage 0 and were passaged and expanded for experimental use once the genotype was confirmed by allelic sequencing and immunoblotting. MEFs were cultured in Dulbecco's modified Eagle medium (DMEM) containing 10% (v/v) fetal bovine serum (FBS), 2 mM L-glutamine, 100 U/ml penicillin, and 100 μg/ml streptomycin supplemented with 1× non-essential amino acids and 1 mM sodium pyruvate.
Culturing and passaging of adherent cell lines were carried out using aseptic technique in CL1 or CL2 (for PBMC isolation) biological safety cabinets. All cells were incubated in a 37° C. incubator with 5% CO2. Cell lines were regularly tested for mycoplasma contamination. For western blot assay, the cells were seeded in 6-well plates. After treating with testing compounds at indicated concentrations and time period, the media was removed and the cells were washed with PBS and lysed in 100 μl ice-cold complete lysis buffer containing 50 mM Tris-HCl pH 7.4, 1 mM EGTA, 10 mM 2-glycerophosphate, 50 mM sodium fluoride, 5 mM sodium pyrophosphate, 270 mM sucrose, supplemented with 1 μg/ml microcystin-LR, 1 mM sodium orthovanadate, complete EDTA-free protease inhibitor cocktail (Roche) and 1% (v/v) Triton X-100. The cells were immediately placed on ice and were scraped and collected into 1.5 ml Eppendorf tubes. Cell lysates were incubated on ice for 10 minutes prior to centrifugation at 15,000 g at 4° C. for 15 minutes. The cell pellet was discarded, and supernatant was collected for analysis by quantitative immunoblotting. For long term storage, the supernatant was flash frozen and stored at −80° C. Protein concentrations of cell lysates were determined using the Bradford assay.
Cell lysates containing a quarter of a volume of 4× NuPAGE LDS sample buffer (NP0007) supplemented with 5% β-mercaptoethanol, were heated at 95° C. for 5 minutes. […]

[3] = molecular target: T1, LRRK2^G2019S (Mus musculus, UniProt Q5S006, G2019S); assay: Western blot LRRK2 degradation in LRRK2^G2019S MEFs; assay type: cell-based; conditions: dose response
T1 construct: endogenous in cells; host or cells: LRRK2[G2019S] mouse embryonic fibroblasts (MEFs)

[4] = Mus musculus, 33 nM/4 h treatment
[5] = Mus musculus, 1 μM/4 h treatment
[6] = Mus musculus, 1 μM/24 h treatment
[7] = Mus musculus, 33 nM/24 h treatment
[8] = Mus musculus, time course at 300 nM, WT MEFs

T1 sequence (Q5S006 whole entry G2019S): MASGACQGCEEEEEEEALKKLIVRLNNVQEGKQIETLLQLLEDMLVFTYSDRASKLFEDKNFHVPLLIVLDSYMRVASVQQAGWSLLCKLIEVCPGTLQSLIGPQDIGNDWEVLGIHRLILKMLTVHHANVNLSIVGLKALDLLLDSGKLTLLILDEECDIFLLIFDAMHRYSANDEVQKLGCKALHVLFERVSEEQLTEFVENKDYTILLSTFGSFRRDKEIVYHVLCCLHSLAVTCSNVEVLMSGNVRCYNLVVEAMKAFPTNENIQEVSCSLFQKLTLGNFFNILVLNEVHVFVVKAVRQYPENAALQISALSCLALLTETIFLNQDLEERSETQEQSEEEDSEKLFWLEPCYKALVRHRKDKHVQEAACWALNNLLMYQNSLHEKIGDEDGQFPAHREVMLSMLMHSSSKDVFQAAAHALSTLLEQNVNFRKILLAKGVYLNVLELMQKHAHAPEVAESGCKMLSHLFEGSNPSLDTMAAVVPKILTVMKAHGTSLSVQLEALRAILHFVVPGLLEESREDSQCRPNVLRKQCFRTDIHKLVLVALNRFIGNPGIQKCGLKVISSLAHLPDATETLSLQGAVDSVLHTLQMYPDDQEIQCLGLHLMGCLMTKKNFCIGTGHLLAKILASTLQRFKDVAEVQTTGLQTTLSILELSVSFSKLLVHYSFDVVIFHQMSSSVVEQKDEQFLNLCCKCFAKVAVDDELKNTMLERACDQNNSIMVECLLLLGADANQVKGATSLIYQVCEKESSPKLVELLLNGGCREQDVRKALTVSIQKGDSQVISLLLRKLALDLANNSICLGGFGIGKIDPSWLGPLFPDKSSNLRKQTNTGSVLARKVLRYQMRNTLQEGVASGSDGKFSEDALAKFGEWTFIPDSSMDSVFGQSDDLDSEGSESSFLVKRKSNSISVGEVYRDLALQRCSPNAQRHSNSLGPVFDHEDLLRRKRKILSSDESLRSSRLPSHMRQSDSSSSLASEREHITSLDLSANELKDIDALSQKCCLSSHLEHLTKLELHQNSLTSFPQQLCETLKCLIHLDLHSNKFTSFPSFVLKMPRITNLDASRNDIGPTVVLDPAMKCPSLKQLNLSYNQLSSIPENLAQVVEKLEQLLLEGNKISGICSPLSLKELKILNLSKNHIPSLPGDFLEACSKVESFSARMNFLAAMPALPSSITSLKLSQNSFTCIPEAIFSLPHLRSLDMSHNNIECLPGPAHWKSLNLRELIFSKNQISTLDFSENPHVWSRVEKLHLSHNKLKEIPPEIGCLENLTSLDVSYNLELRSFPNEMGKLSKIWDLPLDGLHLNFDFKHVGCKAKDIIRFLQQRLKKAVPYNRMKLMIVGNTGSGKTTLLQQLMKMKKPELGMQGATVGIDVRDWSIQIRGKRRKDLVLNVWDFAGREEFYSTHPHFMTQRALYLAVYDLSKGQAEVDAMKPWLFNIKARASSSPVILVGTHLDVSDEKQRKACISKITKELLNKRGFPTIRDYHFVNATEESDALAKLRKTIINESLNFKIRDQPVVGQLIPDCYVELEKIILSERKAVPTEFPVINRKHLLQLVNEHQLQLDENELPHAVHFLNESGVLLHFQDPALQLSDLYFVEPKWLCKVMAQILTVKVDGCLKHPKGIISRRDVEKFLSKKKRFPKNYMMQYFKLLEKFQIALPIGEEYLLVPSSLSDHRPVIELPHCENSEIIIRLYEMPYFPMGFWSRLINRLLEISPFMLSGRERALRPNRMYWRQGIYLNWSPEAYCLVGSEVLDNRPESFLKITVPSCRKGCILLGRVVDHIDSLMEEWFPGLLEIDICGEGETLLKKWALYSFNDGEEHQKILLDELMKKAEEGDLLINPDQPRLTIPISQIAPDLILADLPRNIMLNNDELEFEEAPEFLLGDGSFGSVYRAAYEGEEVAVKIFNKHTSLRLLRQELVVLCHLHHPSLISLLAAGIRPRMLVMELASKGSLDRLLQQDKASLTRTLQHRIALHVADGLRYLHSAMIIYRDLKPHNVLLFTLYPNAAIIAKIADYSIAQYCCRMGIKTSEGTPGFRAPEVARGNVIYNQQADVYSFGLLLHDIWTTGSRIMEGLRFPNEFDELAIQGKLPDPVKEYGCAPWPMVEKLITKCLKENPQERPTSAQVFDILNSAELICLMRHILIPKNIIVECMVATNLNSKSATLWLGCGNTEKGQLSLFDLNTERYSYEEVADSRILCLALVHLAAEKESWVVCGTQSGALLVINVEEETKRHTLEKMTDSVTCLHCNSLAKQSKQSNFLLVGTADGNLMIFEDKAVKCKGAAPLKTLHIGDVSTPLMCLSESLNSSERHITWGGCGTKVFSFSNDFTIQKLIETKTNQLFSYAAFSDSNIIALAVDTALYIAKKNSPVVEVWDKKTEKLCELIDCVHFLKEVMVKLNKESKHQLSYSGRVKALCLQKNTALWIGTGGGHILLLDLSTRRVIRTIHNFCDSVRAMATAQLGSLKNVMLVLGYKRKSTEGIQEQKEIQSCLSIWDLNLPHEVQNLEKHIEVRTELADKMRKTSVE

SMILES | Selectivity Index (pRab10 dephosphorylation, WT vs G2019S MEFs) ([1]; 24 h) | inhibition at 0.033 µM [1, 4] [%] | inhibition at 1 µM [1, 5] [%] | inhibition at 1 µM [1, 6] [%] | Dmax at 1 µM ([1]; Mus musculus, time course at 1000 nM, WT MEFs) [%] | EC50 ([1]; 24 h treatment) [µM] | T1/2 of Rab10 dephosphorylation (WT) ([1]; time course at 1000 nM, WT MEFs) [h] | Selectivity Index (pSer935-LRRK2 dephosphorylation, WT vs G2019S MEFs) ([2]; 24 h) | EC50 ([2]; 24 h treatment) [µM] | T1/2 WT-pSer935-LRRK2 ([2]; time course at 1000 nM) [h] | Dmax on G2019S MEFs ([3]; 24 h treatment) [%] | inhibition at 0.033 µM [1, 7] [%] | Dmax at 0.3 µM [1, 8] [%] | EC50 ([2]; 4 h treatment) [µM] | T1/2 WT-pSer935-LRRK2 ([2]; time course at 300 nM) [h] | DC50 ([3]; 4 h treatment) [µM] | Dmax on G2019S MEFs ([3]; 4 h treatment) | EC50 ([1]; Mus musculus, 4 h treatment) [µM] | T1/2 of Rab10 dephosphorylation (WT) ([1]; time course at 300 nM, WT MEFs) [h]
CNc1nc(Nc2ccc(C(=O)N3CCN(CCOCCOCCSC(C)(C)[C@H](NC(=O)C4(F)CC4)C(=O)N4C[C@H](O)C[C@H]4C(=O)NCc4ccc(-c5scnc5C)cc4)CC3)cc2OC)ncc1Cl [SD75, (2S,4R)-1-((R)-3-((2-(2-(2-(4-(4-((5-chloro-4-(methylamino)pyrimidin-2-yl)amino)-3-methoxybenzoyl)piperazin-1-yl)ethoxy)ethoxy)ethyl)thio)-2-(1-fluorocyclopropane-1-carboxamido)-3-methylbutanoyl)-4-hydroxy-N-(4-(4-methylthiazol-5-yl)benzyl)pyrrolidine-2-carboxamide] | 6.0 | 0 to 25 | 18 to 90 | 30 to 90 | 41 | 2.27 | 6.7 | 2.7 | 0.745 | 3.6 | 43 |  |  |  |  |  |  |  | 
CNc1nc(Nc2ccc(C(=O)N3CCN(C[C@H]4CC[C@H](CSC(C)(C)[C@H](NC(=O)C5(F)CC5)C(=O)N5C[C@H](O)CC5C(=O)NCc5ccc(-c6scnc6C)cc5)CC4)CC3)cc2OC)ncc1Cl (stereo partly drawn) [XL01126, (2S,4R)-1-((R)-3-((((1R,4R)-4-((4-(4-((5-chloro-4-(methylamino)pyrimidin-2-yl)amino)-3-methoxybenzoyl)piperazin-1-yl)methyl)cyclohexyl)methyl)thio)-2-(1-fluorocyclopropane-1-carboxamido)-3-methylbutanoyl)-4-hydroxy-N-(4-(4-methylthiazol-5-yl)benzyl)pyrrolidine-2-carboxamide] |  |  |  |  |  |  |  |  |  |  |  | 0 to 60 | 84 | 0.018 | 0.6 | 0.014 | 80-90% |  | 
CNc1nc(Nc2ccc(C(=O)N3CCN(C[C@H]4CC[C@@H](CSC(C)(C)[C@H](NC(=O)C5(F)CC5)C(=O)N5C[C@H](O)CC5C(=O)NCc5ccc(-c6scnc6C)cc5)CC4)CC3)cc2OC)ncc1Cl (stereo partly shown) [XL01134] |  | 0 to 40 | 10 to 95 | 30 to 100 |  |  |  |  |  |  |  | 0 to 60 | 68 | 0.035 | 0.7 | 0.007 | 78% | 0.074 | 2.1
